# Assay results reported in PubChem BioAssay AID2060882 (Molecular Pharmacology Branch, DTP, NCI, 2025).
# Test system: 898857-211-R-J1-PDC complex spheroids, growth % test/control
# Assay: Anticancer human tumor 898857-211-R-J1-PDC patient-derived melanoma cell line growth inhibition [RAS]
# Details: for viability, T/C: stronger effect = lower value
# Method in brief: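 Multi-cell-type spheroids: tumor cells plus HUVEC endothelial cells and mesenchymal stem cells. RAS-pathway inhibitors were combined with targeted agents, each dosed in half-log steps down from clinical Cmax, or from 10 microM when Cmax was unknown.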
# 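Further: spheroids exposed to compound for seven days before readout.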
# 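Wherever viability, T/C is given: 100% = DMSO vehicle control wells.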
structure (smiles),measurement,setting,value
O=C(c1ccc(F)c(F)c1Nc1ccc(I)cc1F)N1CC(O)([C@@H]2CCCCN2)C1 + CCn1c(-c2cccnc2C(C)OC)c2c3cc(ccc31)N1CCOC(CC(NC(=O)C(C(C)C)N(C)C(=O)C3(F)CCN(C(=O)C#CC(C)(C)N(C)C)CC3)C(=O)N3CCCC(N3)C(=O)OCC(C)(C)C2)C1,IC50,"curve of first compound, second compound 0.000949 µM",3.75 nM
same,IC50,"curve of first compound, second compound 0.003 µM",3.67 nM
same,IC50,"curve of first compound, second compound 0.00949 µM",4.67 nM
same,IC50,"curve of first compound, second compound 0.03 µM",3.3 nM
same,IC50,"curve of first compound, second compound 0.0949 µM",< 3.16 nM
same,IC50,"curve of first compound, second compound 0.3 µM",< 3.16 nM
same,"viability, T/C","second compound 0.000949 µM, first compound 0.00316 µM",53.5%
same,"viability, T/C","second compound 0.000949 µM, first compound 0.01 µM",36.4%
same,"viability, T/C","second compound 0.000949 µM, first compound 0.0316 µM",29.6%
same,"viability, T/C","second compound 0.000949 µM, first compound 0.1 µM",23.9%
same,"viability, T/C","second compound 0.000949 µM, first compound 0.316 µM",16.6%
same,"viability, T/C","second compound 0.000949 µM, first compound 1 µM",12%
same,"viability, T/C","second compound 0.003 µM, first compound 0.00316 µM",52.9%
same,"viability, T/C","second compound 0.003 µM, first compound 0.01 µM",35.4%
same,"viability, T/C","second compound 0.003 µM, first compound 0.0316 µM",26.5%
same,"viability, T/C","second compound 0.003 µM, first compound 0.1 µM",22.4%
same,"viability, T/C","second compound 0.003 µM, first compound 0.316 µM",15.9%
same,"viability, T/C","second compound 0.003 µM, first compound 1 µM",11.8%
same,"viability, T/C","second compound 0.00949 µM, first compound 0.00316 µM",55.8%
same,"viability, T/C","second compound 0.00949 µM, first compound 0.01 µM",39.3%
same,"viability, T/C","second compound 0.00949 µM, first compound 0.0316 µM",27.3%
same,"viability, T/C","second compound 0.00949 µM, first compound 0.1 µM",21.6%
same,"viability, T/C","second compound 0.00949 µM, first compound 0.316 µM",15.7%
same,"viability, T/C","second compound 0.00949 µM, first compound 1 µM",12.7%
same,"viability, T/C","second compound 0.03 µM, first compound 0.00316 µM",50.5%
same,"viability, T/C","second compound 0.03 µM, first compound 0.01 µM",35.5%
same,"viability, T/C","second compound 0.03 µM, first compound 0.0316 µM",21.8%
same,"viability, T/C","second compound 0.03 µM, first compound 0.1 µM",20.4%
same,"viability, T/C","second compound 0.03 µM, first compound 0.316 µM",15.6%
same,"viability, T/C","second compound 0.03 µM, first compound 1 µM",12.4%
same,"viability, T/C","second compound 0.0949 µM, first compound 0.00316 µM",44.8%
same,"viability, T/C","second compound 0.0949 µM, first compound 0.01 µM",35.4%
same,"viability, T/C","second compound 0.0949 µM, first compound 0.0316 µM",28.3%
same,"viability, T/C","second compound 0.0949 µM, first compound 0.1 µM",18.2%
same,"viability, T/C","second compound 0.0949 µM, first compound 0.316 µM",15.6%
same,"viability, T/C","second compound 0.0949 µM, first compound 1 µM",13.4%
same,"viability, T/C","second compound 0.3 µM, first compound 0.00316 µM",33.8%
same,"viability, T/C","second compound 0.3 µM, first compound 0.01 µM",29.3%
same,"viability, T/C","second compound 0.3 µM, first compound 0.0316 µM",20.9%
same,"viability, T/C","second compound 0.3 µM, first compound 0.1 µM",16.6%
same,"viability, T/C","second compound 0.3 µM, first compound 0.316 µM",13.6%
same,"viability, T/C","second compound 0.3 µM, first compound 1 µM",10.7%
O=C(c1ccc(F)c(F)c1Nc1ccc(I)cc1F)N1CC(O)([C@@H]2CCCCN2)C1 + C=CC(=O)N1CCN(c2nc(OCC3CCCN3C)nc3c(F)c(-c4nc(N)cc(C)c4C(F)(F)F)c(Cl)cc23)C(C)C1,IC50,"curve of first compound, second compound 0.00316 µM",5.18 nM
same,IC50,"curve of first compound, second compound 0.01 µM",3.43 nM
same,IC50,"curve of first compound, second compound 0.0316 µM",4.61 nM
same,IC50,"curve of first compound, second compound 0.1 µM",5.75 nM
same,IC50,"curve of first compound, second compound 0.316 µM",6.85 nM
same,IC50,"curve of first compound, second compound 1 µM",8.71 nM
same,"viability, T/C","second compound 0.00316 µM, first compound 0.00316 µM",60.9%
same,"viability, T/C","second compound 0.00316 µM, first compound 0.01 µM",33.6%
same,"viability, T/C","second compound 0.00316 µM, first compound 0.0316 µM",28.4%
same,"viability, T/C","second compound 0.00316 µM, first compound 0.1 µM",21.8%
same,"viability, T/C","second compound 0.00316 µM, first compound 0.316 µM",18.9%
same,"viability, T/C","second compound 0.00316 µM, first compound 1 µM",16.4%
same,"viability, T/C","second compound 0.01 µM, first compound 0.00316 µM",50.9%
same,"viability, T/C","second compound 0.01 µM, first compound 0.01 µM",38.3%
same,"viability, T/C","second compound 0.01 µM, first compound 0.0316 µM",26.4%
same,"viability, T/C","second compound 0.01 µM, first compound 0.1 µM",19.6%
same,"viability, T/C","second compound 0.01 µM, first compound 0.316 µM",15.8%
same,"viability, T/C","second compound 0.01 µM, first compound 1 µM",16%
same,"viability, T/C","second compound 0.0316 µM, first compound 0.00316 µM",56.3%
same,"viability, T/C","second compound 0.0316 µM, first compound 0.01 µM",38%
same,"viability, T/C","second compound 0.0316 µM, first compound 0.0316 µM",23.6%
same,"viability, T/C","second compound 0.0316 µM, first compound 0.1 µM",23.6%
same,"viability, T/C","second compound 0.0316 µM, first compound 0.316 µM",19.1%
same,"viability, T/C","second compound 0.0316 µM, first compound 1 µM",15.3%
same,"viability, T/C","second compound 0.1 µM, first compound 0.00316 µM",60.6%
same,"viability, T/C","second compound 0.1 µM, first compound 0.01 µM",39.7%
same,"viability, T/C","second compound 0.1 µM, first compound 0.0316 µM",28%
same,"viability, T/C","second compound 0.1 µM, first compound 0.1 µM",21.5%
same,"viability, T/C","second compound 0.1 µM, first compound 0.316 µM",17.6%
same,"viability, T/C","second compound 0.1 µM, first compound 1 µM",14%
same,"viability, T/C","second compound 0.316 µM, first compound 0.00316 µM",58.1%
same,"viability, T/C","second compound 0.316 µM, first compound 0.01 µM",46.9%
same,"viability, T/C","second compound 0.316 µM, first compound 0.0316 µM",33.4%
same,"viability, T/C","second compound 0.316 µM, first compound 0.1 µM",25.4%
same,"viability, T/C","second compound 0.316 µM, first compound 0.316 µM",19.1%
same,"viability, T/C","second compound 0.316 µM, first compound 1 µM",14.4%
same,"viability, T/C","second compound 1 µM, first compound 0.00316 µM",73.2%
same,"viability, T/C","second compound 1 µM, first compound 0.01 µM",40.8%
same,"viability, T/C","second compound 1 µM, first compound 0.0316 µM",38.6%
same,"viability, T/C","second compound 1 µM, first compound 0.1 µM",23.5%
same,"viability, T/C","second compound 1 µM, first compound 0.316 µM",18.1%
same,"viability, T/C","second compound 1 µM, first compound 1 µM",14.5%
Cc1nc(N2CCC3(CC2)COC(C)C3N)c(CO)nc1Sc1ccnc(N)c1Cl (stereo unspecified),"viability, T/C",compound 0.0316 µM,100% [middle of 4 runs]
same,"viability, T/C",compound 0.1 µM,89.5% [middle of 4 runs]
same,"viability, T/C",compound 0.316 µM,101% [middle of 4 runs]
same,"viability, T/C",compound 1 µM,95.5% [middle of 4 runs]
same,"viability, T/C",compound 3.16 µM,99.2% [middle of 4 runs]
same,"viability, T/C",compound 10 µM,93.4% [middle of 4 runs]
same,IC50,curve of compound,> 10000 nM
